Experimental data from publication PMC12073402, “A Selective MAP3K1 Inhibitor Facilitates Discovery of NPM1 as a Member of the Network” (Molecules, 2025).

How the values were obtained:
Assay in all cases: KiNativ kinome profiling in PANC-1 lysate
Type in all cases: binding
CDK11, CDK8 = details: 5 µM; Lys2; DLKPANILVMGEGPER
How it was run: (§1)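 PANC-1 lysates were incubated with 5 μM inhibitor or DMSO, then labeled with a desthiobiotin-ATP acyl-phosphate probe that biotinylates conserved kinase lysines. Tryptic peptides were streptavidin-enriched and quantified by LC-MS/MS, reported as % change in MS signal from duplicate treated and duplicate control samples.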

PFTAIRE1 = molecular target: T1, PFTAIRE1 (Homo sapiens, UniProt O94921); details: Lys1
T1 construct: endogenous in cells; host or cells: PANC-1 cell lysate
How it was run: as §1

TYK2 domain2 = molecular target: T2, TYK2 domain2 (Homo sapiens, UniProt P29597); details: ATP Loop
T2 construct: endogenous in cells; host or cells: PANC-1 cell lysate
How it was run: as §1

CaMK1a = molecular target: T3, CaMK1a (Homo sapiens, UniProt Q14012); details: Lys1
T3 construct: endogenous in cells; host or cells: PANC-1 cell lysate
How it was run: as §1

PKN1 = molecular target: T4, PKN1 (Homo sapiens, UniProt Q16512)
T4 construct: endogenous in cells; host or cells: PANC-1 cell lysate
T4 sequence (Q16512 whole entry): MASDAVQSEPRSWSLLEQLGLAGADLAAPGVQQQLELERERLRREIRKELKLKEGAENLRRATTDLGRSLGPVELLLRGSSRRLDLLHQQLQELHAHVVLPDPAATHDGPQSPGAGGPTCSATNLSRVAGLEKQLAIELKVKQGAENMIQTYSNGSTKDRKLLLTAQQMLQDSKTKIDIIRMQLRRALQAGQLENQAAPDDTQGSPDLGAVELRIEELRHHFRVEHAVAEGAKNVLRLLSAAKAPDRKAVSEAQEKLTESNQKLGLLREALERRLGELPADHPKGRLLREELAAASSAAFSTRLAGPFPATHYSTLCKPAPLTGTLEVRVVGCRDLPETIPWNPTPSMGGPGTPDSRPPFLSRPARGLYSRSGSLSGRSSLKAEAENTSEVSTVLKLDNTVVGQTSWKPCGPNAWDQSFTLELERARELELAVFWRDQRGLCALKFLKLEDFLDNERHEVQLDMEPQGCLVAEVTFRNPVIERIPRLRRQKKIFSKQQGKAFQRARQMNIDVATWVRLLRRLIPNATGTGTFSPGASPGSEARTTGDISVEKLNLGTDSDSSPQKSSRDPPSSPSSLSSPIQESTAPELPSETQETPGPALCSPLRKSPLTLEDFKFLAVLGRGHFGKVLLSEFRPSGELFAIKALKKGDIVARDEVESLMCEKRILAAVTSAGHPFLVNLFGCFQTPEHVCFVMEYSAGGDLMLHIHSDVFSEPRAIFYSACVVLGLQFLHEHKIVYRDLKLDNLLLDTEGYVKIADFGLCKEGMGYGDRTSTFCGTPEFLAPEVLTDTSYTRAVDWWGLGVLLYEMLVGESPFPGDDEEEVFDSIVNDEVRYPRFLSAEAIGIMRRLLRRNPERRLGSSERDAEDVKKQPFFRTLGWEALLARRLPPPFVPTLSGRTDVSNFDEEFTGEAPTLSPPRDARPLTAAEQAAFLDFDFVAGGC
How it was run: as §1

CK1a = molecular target: T5, CK1a (Homo sapiens, UniProt P48729); details: Lys2
T5 construct: endogenous in cells; host or cells: PANC-1 cell lysate
How it was run: as §1

PLK2 = molecular target: T6, PLK2 (Homo sapiens, UniProt Q9NYY3); details: Lys2
T6 construct: endogenous in cells; host or cells: PANC-1 cell lysate
How it was run: as §1

LYN = molecular target: T7, LYN (Homo sapiens, UniProt P07948)
T7 construct: endogenous in cells; host or cells: PANC-1 cell lysate
T7 sequence (P07948 whole entry): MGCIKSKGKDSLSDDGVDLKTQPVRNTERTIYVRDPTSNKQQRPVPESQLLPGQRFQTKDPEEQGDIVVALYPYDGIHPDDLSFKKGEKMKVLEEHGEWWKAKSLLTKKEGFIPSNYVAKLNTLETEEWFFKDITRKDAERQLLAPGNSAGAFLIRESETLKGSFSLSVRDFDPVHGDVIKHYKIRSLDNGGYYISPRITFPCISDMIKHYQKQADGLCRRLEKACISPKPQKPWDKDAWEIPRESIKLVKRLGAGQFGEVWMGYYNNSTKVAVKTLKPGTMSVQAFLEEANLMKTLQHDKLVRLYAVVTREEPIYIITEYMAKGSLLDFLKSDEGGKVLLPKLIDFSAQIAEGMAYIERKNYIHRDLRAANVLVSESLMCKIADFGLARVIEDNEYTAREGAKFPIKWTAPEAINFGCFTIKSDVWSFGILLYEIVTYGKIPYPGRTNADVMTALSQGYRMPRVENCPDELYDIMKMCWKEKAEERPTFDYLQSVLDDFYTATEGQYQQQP
How it was run: as §1

[1] = tested on: CaMK2a, CaMK2b, CaMK2d, CaMK2g; details: 5 µM; Lys2; DLKPENLLLASK
How it was run: as §1

CSK = molecular target: T8, CSK (Homo sapiens, UniProt P41240)
T8 construct: endogenous in cells; host or cells: PANC-1 cell lysate
T8 sequence (P41240 whole entry): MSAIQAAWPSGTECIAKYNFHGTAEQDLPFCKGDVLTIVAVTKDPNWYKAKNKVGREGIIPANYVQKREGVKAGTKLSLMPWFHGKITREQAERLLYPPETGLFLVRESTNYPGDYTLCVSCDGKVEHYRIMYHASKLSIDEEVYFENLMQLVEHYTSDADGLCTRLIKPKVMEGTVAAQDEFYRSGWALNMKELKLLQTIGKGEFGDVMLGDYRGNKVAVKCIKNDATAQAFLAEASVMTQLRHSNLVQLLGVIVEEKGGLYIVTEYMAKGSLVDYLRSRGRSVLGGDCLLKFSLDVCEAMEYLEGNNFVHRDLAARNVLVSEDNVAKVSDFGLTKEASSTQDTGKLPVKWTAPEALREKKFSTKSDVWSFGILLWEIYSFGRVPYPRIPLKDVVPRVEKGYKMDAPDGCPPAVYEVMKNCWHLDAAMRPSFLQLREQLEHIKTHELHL
How it was run: as §1

YES = molecular target: T9, YES (Homo sapiens, UniProt P07947); details: Lys1
T9 construct: endogenous in cells; host or cells: PANC-1 cell lysate
How it was run: as §1

Erk5 = molecular target: T10, Erk5 (Homo sapiens, UniProt Q13164); details: Lys2
T10 construct: endogenous in cells; host or cells: PANC-1 lysate
How it was run: as §1

CLK2 = molecular target: T11, CLK2 (Homo sapiens, UniProt P49760); details: Lys2
T11 construct: endogenous in cells; host or cells: PANC-1 cell lysate
How it was run: as §1

SIK = molecular target: T12, SIK (Homo sapiens, UniProt P57059); details: Lys1
T12 construct: endogenous in cells; host or cells: PANC-1 cell lysate
How it was run: as §1

CDC2 = molecular target: T13, CDC2 (Homo sapiens, UniProt P06493)
T13 construct: endogenous in cells; host or cells: PANC-1 cell lysate
T13 sequence (P06493 whole entry): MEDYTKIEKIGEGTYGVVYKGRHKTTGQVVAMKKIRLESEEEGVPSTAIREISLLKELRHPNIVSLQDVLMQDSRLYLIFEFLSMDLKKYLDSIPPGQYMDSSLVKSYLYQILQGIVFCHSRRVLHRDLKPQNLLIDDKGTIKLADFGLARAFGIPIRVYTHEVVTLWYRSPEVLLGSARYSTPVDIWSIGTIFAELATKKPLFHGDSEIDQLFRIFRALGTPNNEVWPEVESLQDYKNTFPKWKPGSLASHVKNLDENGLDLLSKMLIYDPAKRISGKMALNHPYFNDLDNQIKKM
How it was run: as §1

CK1g3 = molecular target: T14, CK1g3 (Homo sapiens, UniProt Q9Y6M4); details: Lys2
T14 construct: endogenous in cells; host or cells: PANC-1 cell lysate
How it was run: as §1

MAP2K5 = molecular target: T15, MAP2K5 (Homo sapiens, UniProt Q13163); details: Lys2
T15 construct: endogenous in cells; host or cells: PANC-1 cell lysate
How it was run: as §1

PIP4K2A = molecular target: T16, PIP4K2A (Homo sapiens, UniProt P48426); details: ATP
T16 construct: endogenous in cells; host or cells: PANC-1 cell lysate
T16 sequence (P48426 whole entry): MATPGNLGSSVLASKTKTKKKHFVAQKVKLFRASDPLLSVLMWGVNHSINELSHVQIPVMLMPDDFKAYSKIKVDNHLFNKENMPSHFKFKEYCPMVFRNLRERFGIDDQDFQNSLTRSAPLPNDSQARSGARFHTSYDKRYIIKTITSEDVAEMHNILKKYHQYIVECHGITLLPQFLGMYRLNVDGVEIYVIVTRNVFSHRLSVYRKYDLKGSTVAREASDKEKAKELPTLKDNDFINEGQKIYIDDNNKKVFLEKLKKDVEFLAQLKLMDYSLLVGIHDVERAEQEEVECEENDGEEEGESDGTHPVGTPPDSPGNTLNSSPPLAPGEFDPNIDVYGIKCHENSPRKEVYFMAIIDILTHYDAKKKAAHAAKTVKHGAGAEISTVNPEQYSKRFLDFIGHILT
How it was run: as §1

PKCa, PKCb = details: 5 µM; Lys2; DLKLDNVMLDSEGHIK
How it was run: as §1

TAO2 = molecular target: T17, TAO2 (Homo sapiens, UniProt Q9UL54); details: Lys2
T17 construct: endogenous in cells; host or cells: PANC-1 cell lysate
T17 sequence (Q9UL54 whole entry): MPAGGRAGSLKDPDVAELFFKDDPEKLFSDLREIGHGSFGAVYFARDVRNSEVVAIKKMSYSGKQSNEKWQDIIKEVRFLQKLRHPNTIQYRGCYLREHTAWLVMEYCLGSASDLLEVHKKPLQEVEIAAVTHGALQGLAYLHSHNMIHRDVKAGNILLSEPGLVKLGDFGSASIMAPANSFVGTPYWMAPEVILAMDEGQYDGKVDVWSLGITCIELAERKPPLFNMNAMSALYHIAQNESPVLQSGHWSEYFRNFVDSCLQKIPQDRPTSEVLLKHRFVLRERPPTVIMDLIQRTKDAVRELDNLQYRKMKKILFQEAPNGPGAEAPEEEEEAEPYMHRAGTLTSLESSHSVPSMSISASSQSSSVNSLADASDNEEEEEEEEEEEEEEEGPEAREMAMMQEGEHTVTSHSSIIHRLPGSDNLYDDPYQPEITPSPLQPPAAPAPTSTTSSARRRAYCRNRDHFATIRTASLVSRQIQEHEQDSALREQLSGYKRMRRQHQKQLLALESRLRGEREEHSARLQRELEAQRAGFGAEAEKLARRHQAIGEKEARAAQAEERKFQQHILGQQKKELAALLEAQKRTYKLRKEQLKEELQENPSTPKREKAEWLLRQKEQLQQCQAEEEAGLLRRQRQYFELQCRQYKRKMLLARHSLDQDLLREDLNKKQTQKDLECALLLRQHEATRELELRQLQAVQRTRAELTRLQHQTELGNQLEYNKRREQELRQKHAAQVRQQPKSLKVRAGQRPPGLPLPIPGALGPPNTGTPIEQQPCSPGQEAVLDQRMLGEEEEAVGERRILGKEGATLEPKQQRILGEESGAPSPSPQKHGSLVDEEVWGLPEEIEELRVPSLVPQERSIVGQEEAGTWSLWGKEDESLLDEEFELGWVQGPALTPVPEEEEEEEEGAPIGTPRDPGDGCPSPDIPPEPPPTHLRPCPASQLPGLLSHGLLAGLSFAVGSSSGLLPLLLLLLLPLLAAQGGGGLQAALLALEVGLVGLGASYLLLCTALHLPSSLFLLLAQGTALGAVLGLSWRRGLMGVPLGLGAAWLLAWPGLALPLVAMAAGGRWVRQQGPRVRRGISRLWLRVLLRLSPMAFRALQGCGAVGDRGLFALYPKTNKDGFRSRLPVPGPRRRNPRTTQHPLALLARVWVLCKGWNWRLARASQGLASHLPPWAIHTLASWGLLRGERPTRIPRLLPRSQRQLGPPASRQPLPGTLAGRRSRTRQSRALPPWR
How it was run: as §1

PIK3CD = molecular target: T18, PIK3CD (Homo sapiens, UniProt O00329); details: ATP
T18 construct: endogenous in cells; host or cells: PANC-1 cell lysate
How it was run: as §1

RIPK1 = molecular target: T19, RIPK1 (Homo sapiens, UniProt Q13546); details: Lys2
T19 construct: endogenous in cells; host or cells: PANC-1 cell lysate
How it was run: as §1

PAN3 = molecular target: T20, PAN3 (Homo sapiens, UniProt Q58A45); details: ATP
T20 construct: endogenous in cells; host or cells: PANC-1 cell lysate
T20 sequence (Q58A45 whole entry): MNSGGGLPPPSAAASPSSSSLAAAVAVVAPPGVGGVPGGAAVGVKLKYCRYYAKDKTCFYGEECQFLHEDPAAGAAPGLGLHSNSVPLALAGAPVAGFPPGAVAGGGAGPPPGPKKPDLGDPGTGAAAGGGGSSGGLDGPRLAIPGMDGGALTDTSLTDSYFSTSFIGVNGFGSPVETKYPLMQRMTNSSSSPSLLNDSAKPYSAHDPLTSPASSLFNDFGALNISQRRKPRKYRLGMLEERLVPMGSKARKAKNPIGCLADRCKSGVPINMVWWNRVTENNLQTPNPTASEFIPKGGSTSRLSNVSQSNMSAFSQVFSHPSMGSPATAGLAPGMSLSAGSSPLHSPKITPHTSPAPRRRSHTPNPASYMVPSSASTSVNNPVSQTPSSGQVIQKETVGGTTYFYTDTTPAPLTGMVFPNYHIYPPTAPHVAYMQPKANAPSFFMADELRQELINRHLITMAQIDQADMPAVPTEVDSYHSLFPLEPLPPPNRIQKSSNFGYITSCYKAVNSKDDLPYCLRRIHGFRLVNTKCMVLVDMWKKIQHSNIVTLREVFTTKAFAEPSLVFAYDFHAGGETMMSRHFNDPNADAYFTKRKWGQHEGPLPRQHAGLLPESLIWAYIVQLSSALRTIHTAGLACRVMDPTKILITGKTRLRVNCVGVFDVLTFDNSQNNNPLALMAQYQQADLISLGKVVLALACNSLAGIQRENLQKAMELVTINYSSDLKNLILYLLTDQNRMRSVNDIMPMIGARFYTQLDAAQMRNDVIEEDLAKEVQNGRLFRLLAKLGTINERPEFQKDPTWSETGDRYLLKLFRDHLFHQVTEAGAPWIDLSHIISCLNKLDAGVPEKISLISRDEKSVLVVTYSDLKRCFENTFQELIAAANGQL
How it was run: as §1

CDK5 = molecular target: T21, CDK5 (Homo sapiens, UniProt Q00535)
T21 construct: endogenous in cells; host or cells: PANC-1 cell lysate
T21 sequence (Q00535 whole entry): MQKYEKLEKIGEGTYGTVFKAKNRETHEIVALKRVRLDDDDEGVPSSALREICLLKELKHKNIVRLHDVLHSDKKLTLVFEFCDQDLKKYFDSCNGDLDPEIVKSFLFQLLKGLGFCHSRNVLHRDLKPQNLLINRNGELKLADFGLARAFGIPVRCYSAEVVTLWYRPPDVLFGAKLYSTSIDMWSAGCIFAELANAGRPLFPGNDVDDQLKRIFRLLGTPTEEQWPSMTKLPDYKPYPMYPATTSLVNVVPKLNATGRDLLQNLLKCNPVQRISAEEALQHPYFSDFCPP
How it was run: as §1

RSK2 domain2 = molecular target: T22, RSK2 domain2 (Homo sapiens, UniProt P51812); details: Lys2
T22 construct: endogenous in cells; host or cells: PANC-1 cell lysate
How it was run: as §1

MAP2K1 = molecular target: T23, MAP2K1 (Homo sapiens, UniProt Q02750); details: Lys2
T23 construct: endogenous in cells; host or cells: PANC-1 cell lysate
How it was run: as §1

Compound: Cn1cc(-c2cnc3ccc(NC(=O)Nc4ccc(F)c(C(F)(F)F)c4)cc3n2)cn1 [51-106, 1-(4-Fluoro-3-(trifluoromethyl)phenyl)-3-(3-(1-methyl-1H-pyrazol-4-yl)quinoxalin-6-yl)urea]
- % Inhibition (CDK11, CDK8): 15.4%
- inhibition at 5 µM (PFTAIRE1): 7.7%
- inhibition at 5 µM (TYK2 domain2): ≤ 0%
- inhibition at 5 µM (CaMK1a): ≤ 0%
- inhibition at 5 µM (PKN1; Lys1, VLLSEFRPSGELFAIKALK): ≤ 0%
- inhibition at 5 µM (PKN1; Lys2, DLKLDNLLLDTEGYVK): 14.3%
- inhibition at 5 µM (CK1a): 11.1%
- inhibition at 5 µM (PLK2): 1.4%
- inhibition at 5 µM (LYN; ATP Loop, EGAKFPIKWTAPEAINFGCFTIK): ≤ 0%
- inhibition at 5 µM (LYN; Lys1, VAVKTLKPGTMSVQAFLEEANLMK): 1.8%
- % Inhibition [1]: NB (NB = No Binding (≤ 0))
- % Inhibition (CSK; 5 µM, ATP Loop, VSDFGLTKEASSTQDTGKLPVK): NB (NB = No Binding (≤ 0))
- inhibition at 5 µM (CSK; Lys1, VAVKCIK): ≤ 0%
- inhibition at 5 µM (YES): 16%
- inhibition at 5 µM (Erk5): 11.6%
- inhibition at 5 µM (CLK2): ≤ 0%
- inhibition at 5 µM (SIK): 23.3%
- inhibition at 5 µM (CDC2; Lys1, TTGQVVAMKK): 20.3%
- inhibition at 5 µM (CDC2; Lys2, DLKPQNLLIDDK): ≤ 0%
- inhibition at 5 µM (CDC2; Protein Kinase Domain, KPLFHGDSEIDQLFR): ≤ 0%
- inhibition at 5 µM (CK1g3): 11.5%
- inhibition at 5 µM (MAP2K5): 3%
- inhibition at 5 µM (PIP4K2A; AKELPTLKDNDFINEGQK): ≤ 0%
- inhibition at 5 µM (PIP4K2A; YIIKTITSEDVAEMHNILK): 4.5%
- % Inhibition (PKCa, PKCb): NB (NB = No Binding (≤ 0))
- inhibition at 5 µM (TAO2): 5.5%
- inhibition at 5 µM (PIK3CD): 1.8%
- inhibition at 5 µM (RIPK1): 3.7%
- inhibition at 5 µM (PAN3; IQKSSNFGYITSCYK): ≤ 0%
- inhibition at 5 µM (PAN3; VMDPTKILITGK): 4.4%
- inhibition at 5 µM (CDK5; Lys1, NRETHEIVALKR): ≤ 0%
- inhibition at 5 µM (CDK5; Lys2, DLKPQNLLINR): 6.5%
- inhibition at 5 µM (RSK2 domain2): 5.7%
- inhibition at 5 µM (MAP2K1): 11%
